According to US20040175691A1, “Use of the KCNQ2 and KCNQ3 genes for the discovery of agents useful in the treatment of neurological disorders” (priority 1998, published 2004):

Columns and labels:
M-current = biological target: T1, M-current (Rattus norvegicus, UniProt O88943+O88944); experiment: Blockade of native M-current in SCG neurons (voltage clamp, intact ganglia); type: cell-based; settings: rat sympathetic neurons; read-out: KD for TEA blockade of native M-current
T1 construct: from tissue
Method: Method: Recordings of the M-current in sympathetic neurons in intact ganglia were performed at room temperature as described previously (Wang and McKinnon, 1995). The standard extracellular recording solution was: NaCl (133 mM, KCl (4.7 mM), NaH2PO4 (1.3 mM), NaHCO3 (16.3 mM), CaCl2 (2 mM), MgCl2 (1.2 mM) and glucose (1.4 g/liter), bubbled with 95% O2-5% CO2 to give pH 7.2-7.4.
A. Blockade of M-current in SCG neurons by XE991. Holding potential was −30 mV and step potential was −50 mV for 1 second. The shift in holding current following drug application is due to the inhibition of M-current activated at the holding potential.
Maximal block of native M-current was 93±2%. Data points are averages and error bars represent s.e.m.

KCNQ2 + KCNQ3 = biological target: T2, KCNQ2 + KCNQ3 (UniProt O43526+O88944, DEL417-446); experiment: Blockade of KCNQ2+KCNQ3 channels expressed in Xenopus oocytes; type: cell-based, human KCNQ2, rat KCNQ3
T2 construct: Full-length KCNQ2 cDNAs were amplified from adult human brain cDNA; Multiple full-length cDNA clones were amplified in independent PCR reactions from rat SCG cDNA; expressed in transfected cells; host or cells: Xenopus oocytes injected with cRNA
Method: (§1) Method: Full-length KCNQ2 cDNAs were amplified from adult human brain cDNA using the following primers ([…], […]) with the Expand Fidelity enzyme mixture (Boehringer Mannheim, Indianapolis). […] This region is also alternatively spliced in the KCNQ2 cDNA clone described by Biervert et al. (1998). Preparation, injection of cRNA and recording from oocytes was performed at room temperature as described previously (Dixon et al. 1996). The standard extracellular recording solution contained: 82 mM NaCl, 2 mM KCl, 1.8 mM CaCl2, 1 mM MgCl2, and 5 mM Na-HEPES (pH 7.6). Data collection and analysis were performed using pClamp software (Axon Instruments, Foster City, Calif.).
Holding potential was −60 mV and the cell was repetitively depolarized to −30 mV for 1 minute to reach steady-state blockade. Tail currents were recorded at −50 mV.
IC50 values are all expressed in μM, mean±s.e.m. In cases where the IC50 values were greater than 100 μM the exact value is not reported due to limited solubility in the drug.

KCNQ2 = KCNQ2 (Homo sapiens, UniProt O43526, DEL417-446); experiment: Blockade of KCNQ2 channels expressed in Xenopus oocytes; type: cell-based; design: Full-length KCNQ2 cDNAs were amplified from adult human brain cDNA; expressed in transfected cells; host or cells: Xenopus oocytes injected with cRNA; settings: homomultimeric KCNQ2, oocytes; Hill coefficient set to unity; read-out: KD for TEA block of KCNQ2 channels
Method: as §1
IC50 values are all expressed in μM, mean±s.e.m.

hKCNQ2 potassium channel = biological target: T3, hKCNQ2 potassium channel (Homo sapiens, UniProt O43526, DEL417-446); experiment: Membrane potential-evoked fluorescence (FLIPR, DiBAC) in HEK 293E cells stably expressing hKCNQ2; type: cell-based; settings: FIG. 7
T3 construct: Full-length hKCNQ2 cDNAs were amplified from adult human brain cDNA; expressed in transfected cells; host or cells: 293 EBNA (HEK 293E) cells, episomal plasmid pm3AR-hKCNQ2-1, hygromycin B selection
Method: The ability of KCNQ2 modulators to alter membrane potential was assessed using a fluorescence imaging plate reader (FLIPR). Cultured HEK 293E cells expressing hKCNQ2 channels are plated on poly-D-lysine-coated 96-well Costar microplates (#3603) at 300,000-750,000 cells/ml and allowed to reach confluence in DMEM (with 10% FBS and 250 ug/ml hygromycin B) at 37° C. and 5% CO2. After reaching confluence, growth medium is removed, replaced with a standard Hank's balanced salt solution containing 5 uM dibac(4)3, bis-oxonol (Molecular Probes # B-438) at 37° C. The cell plate is then placed in the recording chamber (equilibrated to 37° C.) of a fluorescence imaging plate reader (FLIPR; Molecular Devices) along with two drug plates (one containing standard Hank's balanced salt solution+dibac and the other containing standard Hank's balanced salt solution+dibac+test compound at various experimental concentrations).
These cells were loaded with the voltage-sensitive fluorescent dye, DiBAC, that distributes across cell membranes in a voltage-dependent manner. As cells depolarize (become more positive inside), more dye enters the cells and an increase in fluorescence occurs.
In FIG. 7, the relative effects of several M-current modulators on the flourescence of HEK 293E cells stably expressing the hKCNQ2 potassium channel is shown. These cells were loaded with the voltage-sensitive fluorescent dye, DiBAC, that distributes across cell membranes in a voltage-dependent manner. As cells depolarize, more dye enters the cells and an increase in fluorescence occurs. Conversely, as cells hyperpolarize (become more negative inside), more dye leaves the cells and a decrease in fluorescence occurs.

With `CC[N+](CC)(CC)CC` [TEA, tetraethylammonium] the Kd (M-current) was 6.1 mM, the Kd (KCNQ2 + KCNQ3; co-injection of KCNQ2 and KCNQ3 mRNAs, read-out: KD for TEA block of KCNQ2+KCNQ3 channels) was 3.5 ± 0.7 mM and the “Hill coefficient of TEA block of KCNQ2+KCNQ3 channels” value (KCNQ2 + KCNQ3; dose response fitted with Hill equation) was 0.82±0.03. The Kd (KCNQ2) was 0.16 ± 0.02 mM.
In the case of `Nc1ccc(CC2(Cc3ccc(N)cc3)C(=O)N(c3ccccc3)c3ccccc32)cc1` [X7315], the “Relative effect on fluorescence / membrane potential” value (hKCNQ2 potassium channel; 3 μM) is reported as “no effect” and the “Relative effect on fluorescence / membrane potential” value (hKCNQ2 potassium channel; 100 μM) is reported as “apparent membrane hyperpolarization”.
For `O=C1c2ccccc2C(Cc2ccnc(F)c2)(Cc2ccnc(F)c2)c2ccccc21` [XR543], the “Relative effect on fluorescence / membrane potential” value (hKCNQ2 potassium channel; 3 μM) was “more membrane depolarization than linopirdine”.
